These results are taken from US7994140B2, “Classes of compounds that interact with GPCRs” (Alchemia Limited, priority 2002, dated 2011).

This assay addresses T1, MC4 (Homo sapiens, UniProt P32245).
T1 construct: purchased Perkin Elmer BioSignal; host or cells: HEK 293
The experiment in a line: GPCR radioligand binding (RLB) assay, melanocortin MC4, [125I]NDP-αMSH. As to the method: Recombinant human receptors expressed in HEK 293 cells were used for all experiments. Receptor membrane preparations were purchased from Perkin Elmer BioSignal. The labelled ligand used in somatostatin GPCR RLB assays was [^125I]SST-14 and in melanocortin assays was [^125I]NDP-αMSH. All assays were done in a 96-well plate format using either glass fiber filter mats or filter plates. All reagents purchased were of the highest quality.
Specific assay buffer, incubation and washing conditions were optimized for each receptor however they all followed the same general format. The procedures for both filter mat and filter plate formats are based on the receptor manufacturers recommendations or those described extensively in the literature. The procedures are briefly outlined below.
In assays where filter mats are used we incubate receptor membranes, assay buffer and [^125I] labelled ligand in 96 well microplates. Add compounds to incubation mixture and continue incubation for optimized period. Presoak Filter mat GF/B in 0.5% PEI for ˜2 hr at 4° C. On completion of assay mixture incubation add additional 100 μL/well of assay buffer immediately prior to filtration. Filter the assay mixture onto the GF/B filter mat using a cell harvester. Dry the filter mats prior to sealing them into a scintillation counting bag with scintillant. Radioactivity in each well is detected by liquid scintillation counting.
In assays where filter plates are used Multiscreen glass fiber filter plates (Millipore, Cat No MAFCNOB10) are precoated with 0.5% PEI for ˜2 hr at 4° C. All wells are then washed with 200 µl/well assay buffer and filtered using the Multiscreen Separation System. Subsequently receptor membranes, assay buffer and labelled ligands are added to the wells and equilibrated. Compounds for testing are then added to the mixture and incubation is continued for an optimized time. Plates are then put into the Multiscreen Separation System and the assay mixture is filtered through the plate under vacuum. Each well is then washed several times with assay buffer. Plates are then dried prior to putting sealing tape onto the bottom of the plate. Scintillant is added to each well and radioactivity measured by liquid scintillation counting.
Raw data was analysed according to standard methods using either GraphPad Prism software or IDDBS ActivityBase software.

Setting [1] is: 4.0 Micromolar, Example Library 10.

T1 sequence (P32245 whole entry): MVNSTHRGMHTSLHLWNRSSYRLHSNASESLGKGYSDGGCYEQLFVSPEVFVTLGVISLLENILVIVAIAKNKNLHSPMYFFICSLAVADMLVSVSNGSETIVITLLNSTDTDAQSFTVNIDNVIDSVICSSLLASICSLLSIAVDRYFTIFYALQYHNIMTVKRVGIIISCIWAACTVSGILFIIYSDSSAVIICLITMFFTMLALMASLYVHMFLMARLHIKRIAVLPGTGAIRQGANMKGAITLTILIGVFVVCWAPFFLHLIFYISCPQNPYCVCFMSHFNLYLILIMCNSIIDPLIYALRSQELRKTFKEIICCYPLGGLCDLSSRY

Consider `COC1C(O)C(COCc2ccc3ccccc3c2)OC(OCc2ccc(Cl)cc2)C1NC(=O)C1CCCN(C(=N)N)C1` (centres unmarked) [Compound 344], for which the “MC4 Inhibition at 4.0 Micromolar” value (4.0 micromolar compound) was “+ (Indicates inhibition greater than . . . 50%)”.

Turning to `COC1C(O)C(COCc2ccc3ccccc3c2)OC(OCc2ccc(Cl)cc2)C1NC(=O)CNC(=N)N` (centres unmarked) [Compound 345], the “MC4 Inhibition at 4.0 Micromolar” value (4.0 micromolar compound) is recorded as “+ (Indicates inhibition greater than . . . 50%)”.

In the case of `COC1C(O)C(COCc2ccc3ccccc3c2)OC(OCc2ccc(Cl)cc2)C1NC(=O)C(N)CN` (centres unmarked) [Compound 346], the “MC4 Inhibition at 4.0 Micromolar” value (4.0 micromolar compound) is reported as “+ (Indicates inhibition greater than . . . 50%)”.

`COC1C(O)C(COCc2ccc3ccccc3c2)OC(OCc2ccc(Cl)cc2)C1NCC(=O)C1CCCN1` (centres unmarked) [Compound 347]: the “MC4 Inhibition at 4.0 Micromolar” value (4.0 micromolar compound) is on record as “+ (Indicates inhibition greater than . . . 50%)”.

`COC1C(O)C(COCc2ccc3ccccc3c2)OC(OCc2ccc(Cl)cc2)C1NC(=O)C1CCN(C(=N)N)CC1` (centres unmarked) [Compound 348]: the “MC4 Inhibition at 4.0 Micromolar” value (4.0 micromolar compound) is recorded as “+ (Indicates inhibition greater than . . . 50%)”.

As to `COC1C(O)C(COCc2ccc3ccccc3c2)OC(OCc2ccc(Cl)cc2)C1NC(=O)CNC(=N)N` (centres unmarked) [Compound 349], the “MC4 Inhibition at 4.0 Micromolar” value (4.0 micromolar compound) is “+ (Indicates inhibition greater than . . . 50%)”.

In the case of `NCC(=O)N[C@H]1C(OCc2ccc3ccccc3c2)O[C@H](COCc2ccc3ccccc3c2)[C@@H](O)[C@@H]1OCc1ccc(Cl)cc1` (some centres unmarked) [Compound 350], the “MC4 Inhibition at 4.0 Micromolar” value under setting [1] is “+ (Indicates inhibition greater than . . . 50%)”.

As for `NCC(=O)N[C@H]1C(OCc2ccc3ccccc3c2)O[C@H](COCc2ccc3ccccc3c2)[C@@H](O)[C@@H]1OCc1ccc(Cl)cc1` (some centres unmarked) [Compound 351], the “MC4 Inhibition at 4.0 Micromolar” value under setting [1] is reported as “+ (Indicates inhibition greater than . . . 50%)”.

On to `NCCC(=O)N[C@H]1C(OCc2ccc3ccccc3c2)O[C@H](COCc2ccccc2)[C@@H](O)[C@@H]1OCc1ccc(Cl)cc1` (some centres unmarked) [Compound 352], for which, under setting [1], the “MC4 Inhibition at 4.0 Micromolar” value is listed as “+ (Indicates inhibition greater than . . . 50%)”.

Turning to `NCCC(=O)N[C@H]1C(OCc2ccc3ccccc3c2)O[C@H](COCc2ccccc2)[C@@H](O)[C@@H]1OCc1ccc(Cl)cc1` (some centres unmarked) [Compound 353], the “MC4 Inhibition at 4.0 Micromolar” value under setting [1] is recorded as “+ (Indicates inhibition greater than . . . 50%)”.

As to `NCCC(=O)N[C@H]1C(OCc2ccc3ccccc3c2)O[C@H](COCc2ccc(Cl)cc2)[C@@H](O)[C@@H]1OCc1ccc(Cl)cc1` (some centres unmarked) [Compound 354], the “MC4 Inhibition at 4.0 Micromolar” value under setting [1] was “+ (Indicates inhibition greater than . . . 50%)”.

For `NCCC(=O)N[C@H]1C(OCc2ccc3ccccc3c2)O[C@H](COCc2ccc(Cl)cc2)[C@@H](O)[C@@H]1OCc1ccc(Cl)cc1` (some centres unmarked) [Compound 355], under setting [1], the “MC4 Inhibition at 4.0 Micromolar” value is on record as “+ (Indicates inhibition greater than . . . 50%)”.

With `NCC(=O)N[C@H]1C(OCc2ccc3ccccc3c2)O[C@H](COCc2ccc3ccccc3c2)[C@@H](O)[C@@H]1OCc1ccc2ccccc2c1` (some centres unmarked) [Compound 356], the “MC4 Inhibition at 4.0 Micromolar” value under setting [1] is reported as “+ (Indicates inhibition greater than . . . 50%)”.

Consider `NCCC(=O)N[C@H]1C(OCc2ccc3ccccc3c2)O[C@H](COCc2ccc3ccccc3c2)[C@@H](O)[C@@H]1OCc1ccc2ccccc2c1` (some centres unmarked) [Compound 357], for which the “MC4 Inhibition at 4.0 Micromolar” value under setting [1] is “+ (Indicates inhibition greater than . . . 50%)”.

As for `NCCC(=O)N[C@H]1C(OCc2ccc3ccccc3c2)O[C@H](COCc2ccccc2)[C@@H](O)[C@@H]1OCc1ccc2ccccc2c1` (some centres unmarked) [Compound 358], the “MC4 Inhibition at 4.0 Micromolar” value under setting [1] is reported as “+ (Indicates inhibition greater than . . . 50%)”.

Take `NCCC(=O)N[C@H]1C(OCc2ccc3ccccc3c2)O[C@H](COCc2ccc(Cl)cc2)[C@@H](O)[C@@H]1OCc1ccc2ccccc2c1` (some centres unmarked) [Compound 359]: under setting [1], the “MC4 Inhibition at 4.0 Micromolar” value is on record as “+ (Indicates inhibition greater than . . . 50%)”.

For the compound `NCCC(=O)N[C@H]1C(OCc2ccc3ccccc3c2)O[C@H](COCc2ccc(Cl)cc2)[C@@H](O)[C@@H]1OCc1ccc2ccccc2c1` (some centres unmarked) [Compound 360], the “MC4 Inhibition at 4.0 Micromolar” value under setting [1] is “+ (Indicates inhibition greater than . . . 50%)”.

Regarding `NCCC(=O)N[C@H]1C(OCc2ccc3ccccc3c2)O[C@H](COCc2ccc3ccccc3c2)[C@@H](O)[C@@H]1OCc1ccccc1` (some centres unmarked) [Compound 361], under setting [1], the “MC4 Inhibition at 4.0 Micromolar” value is “+ (Indicates inhibition greater than . . . 50%)”.

Turning to `NCC(=O)N[C@H]1C(OCc2ccc3ccccc3c2)O[C@H](COCc2ccc(Cl)cc2)[C@@H](O)[C@@H]1OCc1ccccc1` (some centres unmarked) [Compound 364], the “MC4 Inhibition at 4.0 Micromolar” value under setting [1] is recorded as “+ (Indicates inhibition greater than . . . 50%)”.

Regarding `NCCCC(=O)N[C@H]1C(OCc2ccc3ccccc3c2)O[C@H](COCc2ccc3ccccc3c2)[C@@H](O)[C@@H]1OCc1ccc2ccccc2c1` (some centres unmarked) [Compound 369], the “MC4 Inhibition at 4.0 Micromolar” value under setting [1] was “+ (Indicates inhibition greater than . . . 50%)”.

For `NCCCC(=O)N[C@H]1C(OCc2ccc3ccccc3c2)O[C@H](COCc2ccccc2)[C@@H](O)[C@@H]1OCc1ccccc1` (some centres unmarked) [Compound 374], the “MC4 Inhibition at 4.0 Micromolar” value under setting [1] is on record as “+ (Indicates inhibition greater than . . . 50%)”.

On to `NCCCC(=O)N[C@H]1C(OCc2ccc3ccccc3c2)O[C@H](COCc2ccc(Cl)cc2)[C@@H](O)[C@@H]1OCc1ccccc1` (some centres unmarked) [Compound 375], for which the “MC4 Inhibition at 4.0 Micromolar” value under setting [1] is “+ (Indicates inhibition greater than . . . 50%)”.

Turning to `NCCC(=O)N[C@H]1C(OCc2ccc(Cl)cc2)O[C@H](COCc2ccccc2)[C@@H](O)[C@@H]1OCc1ccc(Cl)cc1` (some centres unmarked) [Compound 376], the “MC4 Inhibition at 4.0 Micromolar” value under setting [1] is “+ (Indicates inhibition greater than . . . 50%)”.

For `NCCC(=O)N[C@H]1C(OCc2ccc(Cl)cc2)O[C@H](COCc2ccc(Cl)cc2)[C@@H](O)[C@@H]1OCc1ccc(Cl)cc1` (some centres unmarked) [Compound 377], the “MC4 Inhibition at 4.0 Micromolar” value under setting [1] is recorded as “+ (Indicates inhibition greater than . . . 50%)”.

As for `NCCC(=O)N[C@H]1C(OCc2ccc(Cl)cc2)O[C@H](COCc2ccc3ccccc3c2)[C@@H](O)[C@@H]1OCc1ccc2ccccc2c1` (some centres unmarked) [Compound 378], the “MC4 Inhibition at 4.0 Micromolar” value under setting [1] was “+ (Indicates inhibition greater than . . . 50%)”.

For `NCCC(=O)N[C@H]1C(OCc2ccc(Cl)cc2)O[C@H](COCc2ccccc2)[C@@H](O)[C@@H]1OCc1ccc2ccccc2c1` (some centres unmarked) [Compound 379], the “MC4 Inhibition at 4.0 Micromolar” value under setting [1] is “+ (Indicates inhibition greater than . . . 50%)”.

In the case of `NCC(=O)N[C@H]1C(OCc2ccc(Cl)cc2)O[C@H](COCc2ccccc2)[C@@H](O)[C@@H]1OCc1ccc2ccccc2c1` (some centres unmarked) [Compound 380], the “MC4 Inhibition at 4.0 Micromolar” value under setting [1] was “+ (Indicates inhibition greater than . . . 50%)”.

For the compound `NCCC(=O)N[C@H]1C(OCc2ccc(Cl)cc2)O[C@H](COCc2ccc(Cl)cc2)[C@@H](O)[C@@H]1OCc1ccc2ccccc2c1` (some centres unmarked) [Compound 381], under setting [1], the “MC4 Inhibition at 4.0 Micromolar” value was “+ (Indicates inhibition greater than . . . 50%)”.

For `NCC(=O)N[C@H]1C(OCc2ccc(Cl)cc2)O[C@H](COCc2ccc(Cl)cc2)[C@@H](O)[C@@H]1OCc1ccc2ccccc2c1` (some centres unmarked) [Compound 382], the “MC4 Inhibition at 4.0 Micromolar” value under setting [1] is given as “+ (Indicates inhibition greater than . . . 50%)”.

As for `NCCC(=O)N[C@H]1C(OCc2ccc(Cl)cc2)O[C@H](COCc2ccc3ccccc3c2)[C@@H](O)[C@@H]1OCc1ccccc1` (some centres unmarked) [Compound 383], the “MC4 Inhibition at 4.0 Micromolar” value under setting [1] is listed as “+ (Indicates inhibition greater than . . . 50%)”.

On to `NCC(=O)N[C@H]1C(OCc2ccc(Cl)cc2)O[C@H](COCc2ccccc2)[C@@H](O)[C@@H]1OCc1ccccc1` (some centres unmarked) [Compound 384], for which the “MC4 Inhibition at 4.0 Micromolar” value under setting [1] is on record as “+ (Indicates inhibition greater than . . . 50%)”.

On to `NCCC(=O)N[C@H]1C(OCc2ccc(Cl)cc2)O[C@H](COCc2ccc(Cl)cc2)[C@@H](O)[C@@H]1OCc1ccccc1` (some centres unmarked) [Compound 385], for which the “MC4 Inhibition at 4.0 Micromolar” value under setting [1] was “+ (Indicates inhibition greater than . . . 50%)”.

As to `NCCCC(=O)N[C@H]1C(OCc2ccc(Cl)cc2)O[C@H](COCc2ccc3ccccc3c2)[C@@H](O)[C@@H]1OCc1ccc(Cl)cc1` (some centres unmarked) [Compound 386], the “MC4 Inhibition at 4.0 Micromolar” value under setting [1] is given as “+ (Indicates inhibition greater than . . . 50%)”.

As for `NCCCC(=O)N[C@H]1C(OCc2ccc(Cl)cc2)O[C@H](COCc2ccccc2)[C@@H](O)[C@@H]1OCc1ccc(Cl)cc1` (some centres unmarked) [Compound 387], under setting [1], the “MC4 Inhibition at 4.0 Micromolar” value is “+ (Indicates inhibition greater than . . . 50%)”.

Turning to `NCCCC(=O)N[C@H]1C(OCc2ccc(Cl)cc2)O[C@H](COCc2ccc(Cl)cc2)[C@@H](O)[C@@H]1OCc1ccc(Cl)cc1` (some centres unmarked) [Compound 388], the “MC4 Inhibition at 4.0 Micromolar” value under setting [1] is on record as “+ (Indicates inhibition greater than . . . 50%)”.

`NCCCC(=O)N[C@H]1C(OCc2ccc(Cl)cc2)O[C@H](COCc2ccc3ccccc3c2)[C@@H](O)[C@@H]1OCc1ccccc1` (some centres unmarked) [Compound 395]: the “MC4 Inhibition at 4.0 Micromolar” value under setting [1] was “+ (Indicates inhibition greater than . . . 50%)”.

Consider `NCCCC(=O)N[C@H]1C(OCc2ccc(Cl)cc2)O[C@H](COCc2ccc(Cl)cc2)[C@@H](O)[C@@H]1OCc1ccccc1` (some centres unmarked) [Compound 396], for which the “MC4 Inhibition at 4.0 Micromolar” value under setting [1] is given as “+ (Indicates inhibition greater than . . . 50%)”.

For the compound `NCCC(=O)NC1C(OCc2ccccc2)OC(COCc2ccc3ccccc3c2)C(O)C1OCc1ccc(Cl)cc1` (centres unmarked) [Compound 397], the “MC4 Inhibition at 4.0 Micromolar” value (4.0 Micromolar, Example Library 11) is “+ (Indicates inhibition greater than . . . 50%)”.
